Reference: patent publication US20260232691A1, “NBD1 MODULATORS AND METHODS OF USING THE SAME” (Sionna Therapeutics Inc., priority 2023, published 2026)

How the values were obtained:
NBD1 = experiment: Aggregation analysis using differential static light scattering (DSLS), thermal stability of NBD1; assay type: binding, Human; settings: 100 μM compound; ΔTagg = Tagg minus average Tagg of DMSO control wells; purified recombinant NBD1
Method: Purified recombinant NBD1 was produced using previously described methods (A. Schmidt, J. L. Mendoza, P. J. Thomas (2011) Biochemical and Biophysical Approaches to Probe CFTR Structure (365-376) M. D. Amaral, K. Kunzelmann (eds.), Cystic Fibrosis, Methods in Molecular Biology 741, Springer Science+Business Media). The effect of test compounds on thermal stability of NBD1 was evaluated by differential static light scattering (DSLS) using the Harbinger Stargazer-384 instrument (Epiphyte Three, Toronto, Canada). Test compounds were dissolved and diluted to desired concentrations in 100% DMSO. The compounds or DMSO controls (100 nL) were stamped into wells of a […] low volume optical plate (Corning Inc., Corning, NY) using the Echo 555 acoustic liquid handler (Labcyte Inc., San Jose, CA).
NBD1 protein was diluted to 0.2 mg/ml in S200 buffer (50 mM Tris-HCl, 150 mM NaCl, 5 mM MgCl2, 2 mM ATP, 2 mM DTT, pH7.6) containing 1% glycerol. 10 uL of protein solution was aliquoted into the 384-well plate harboring the test compounds and 10 uL mineral oil was overlayed onto the protein solution, using the epMotion robotic liquid handler (Eppendorf North America, Hauppauge, NY). After placing into the Stargazer instrument, the plate was heated at 1° C. per minute to 70° C. Images were captured from 25° C. to 70° C. every 0.5° C. At the end of the experiment run, instrument software integrated image files and analyzed data automatically. A […] regression curve was generated for each well, representing the increase in light scattering over time. A temperature of aggregation (Tagg) was calculated based on the inflection point of the curve. To better compare data across experiments the average Tagg for DMSO control wells was calculated and subtracted from values for wells containing compounds to obtain a “ΔTagg” value. These ΔTagg values reflect stabilizing efficacy of the compounds.

[1] = molecular target: T1, CFTR (primary human bronchial epithelial cells from a ΔF508 homozygous CF donor, CF-HBE cells) (Homo sapiens, UniProt P13569, DEL508-508); experiment: TECC24 recording of CFTR-mediated transepithelial chloride transport, AUC fold over DMSO; assay type: cell-based; settings: test agent AUC of forskolin-stimulated IEQ divided by vehicle (DMSO) AUC, 48 hours incubation
T1 construct: Primary human bronchial epithelial cells from a ΔF508 homozygous CF donor; host or cells: primary human bronchial epithelial cells (CF-HBE), ΔF508/ΔF508 donor
T1 sequence (P13569 with tags, fused parts or gaps DEL508-508): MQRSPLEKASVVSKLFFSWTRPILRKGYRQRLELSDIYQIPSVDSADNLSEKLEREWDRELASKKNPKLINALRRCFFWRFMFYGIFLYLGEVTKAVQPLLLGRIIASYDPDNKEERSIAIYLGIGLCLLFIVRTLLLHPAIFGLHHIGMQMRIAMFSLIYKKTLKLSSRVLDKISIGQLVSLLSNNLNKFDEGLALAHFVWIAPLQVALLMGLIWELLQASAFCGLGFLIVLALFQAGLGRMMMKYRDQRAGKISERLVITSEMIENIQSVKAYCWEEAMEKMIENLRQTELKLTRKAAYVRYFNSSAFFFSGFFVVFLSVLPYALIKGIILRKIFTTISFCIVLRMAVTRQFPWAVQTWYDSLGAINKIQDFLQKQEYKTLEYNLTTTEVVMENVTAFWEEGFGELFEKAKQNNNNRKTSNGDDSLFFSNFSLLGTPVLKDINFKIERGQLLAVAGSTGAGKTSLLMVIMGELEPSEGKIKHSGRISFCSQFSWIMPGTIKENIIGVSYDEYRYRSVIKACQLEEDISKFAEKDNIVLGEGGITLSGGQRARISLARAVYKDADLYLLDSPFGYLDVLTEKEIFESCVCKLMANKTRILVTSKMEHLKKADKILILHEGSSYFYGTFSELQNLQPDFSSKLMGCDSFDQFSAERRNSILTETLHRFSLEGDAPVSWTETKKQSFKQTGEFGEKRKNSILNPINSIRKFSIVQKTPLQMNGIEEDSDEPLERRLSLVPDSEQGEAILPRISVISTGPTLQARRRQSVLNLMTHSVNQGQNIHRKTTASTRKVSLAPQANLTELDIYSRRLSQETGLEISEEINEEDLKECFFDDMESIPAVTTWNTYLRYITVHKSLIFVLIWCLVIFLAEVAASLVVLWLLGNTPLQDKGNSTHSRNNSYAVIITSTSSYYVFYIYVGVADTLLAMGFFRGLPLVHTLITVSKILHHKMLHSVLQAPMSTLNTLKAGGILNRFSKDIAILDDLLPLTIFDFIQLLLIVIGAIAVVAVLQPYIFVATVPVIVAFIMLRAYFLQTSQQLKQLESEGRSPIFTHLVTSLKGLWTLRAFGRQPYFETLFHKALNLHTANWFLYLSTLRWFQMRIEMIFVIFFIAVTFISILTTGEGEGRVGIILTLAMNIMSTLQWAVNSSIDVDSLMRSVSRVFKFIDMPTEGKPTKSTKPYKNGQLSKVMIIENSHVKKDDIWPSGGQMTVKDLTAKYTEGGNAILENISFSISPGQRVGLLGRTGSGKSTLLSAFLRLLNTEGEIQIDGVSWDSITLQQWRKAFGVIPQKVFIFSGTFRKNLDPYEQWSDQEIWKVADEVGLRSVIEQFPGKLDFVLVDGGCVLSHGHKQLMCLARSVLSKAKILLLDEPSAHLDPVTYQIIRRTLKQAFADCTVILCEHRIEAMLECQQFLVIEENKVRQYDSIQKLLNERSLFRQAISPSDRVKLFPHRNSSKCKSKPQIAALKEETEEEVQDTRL
Method: The effects of a test agent on CFTR-mediated transepithelial chloride transport was measured using TECC24 recording analysis. Test agents were solubilized in DMSO. Solubilized test agents were mixed with incubation medium containing DMEM/F12, Ultroser G (2%; Crescent Chemical, catalog #67042), Hyclone Fetal Clone II (2%; GE Healthcare, catalog #SH30066.02), bovine brain extract (0.25%; Lonza, catalog #CC-4098), insulin ([…]), IL-13 (10 ng/mL), hydrocortisone (20 nM), transferrin ([…]), triiodothyronine (500 nM), ethanolamine (250 nM), epinephrine (1.5 μM), phosphoethanolamine (250 nM), and retinoic acid (10 nM). Primary human bronchial epithelial cells from a ΔF508 homozygous CF donor (CF-HBE cells; from University of North Carolina Cystic Fibrosis Tissue Procurement Center), grown on Transwell HTS 24-well cell culture inserts (Costar, catalog #3378), were exposed to test agents or controls dissolved in incubation medium. The CF-HBE cells were cultured at 36.5° C. for 48 hours before TECC24 recordings were performed in the presence or absence of test agent, a positive control or vehicle (DMSO).
Following incubation, the transwell cell culture inserts containing the test agent or control-treated CF-HBE cells were loaded onto a TECC24 apparatus (TECC v7 or MTECC v2; EP Design) to record the transepithelial voltage (VT) and resistance (TEER) using 4 AgCl electrodes per well configured in current-clamp mode. The apical and basolateral bath solutions both contained (in mM) 140 NaCl, 5 KCl, 2 CaCl2), 1 MgCl2, 10 Hepes, and 10 glucose (adjusted to pH 7.4 with NaOH). To inhibit basal Na+ absorption, the ENaC inhibitor benzamil (10 μM) was added to the bath. Then, the adenylate cyclase activator, forskolin (10 μM), was added to the bath to activate CFTR. The forskolin-stimulated Cl—transport was halted by addition of CFTR inhibitor-172 (20 μM) to the bath at the end of the experiment to confirm specificity. VT and TEER recordings were digitally acquired at routine intervals using TECC or MTECC software (EP Design). VT and TEER were transformed into equivalent transepithelial Cl—current (IEQ), and the Area Under the Curve (AUC) of the IEQ time course between forskolin and CFTR inhibitor-172 addition is generated using Excel (Microsoft). Efficacy is expressed as the ratio of the test agent AUC divided by vehicle AUC. EC50s based on AUC are generated using the non-linear regression log(agonist) vs. response function in Prism software (Graphpad) with HillSlope fixed=1.
If a test agent increased the AUC of the forskolin-stimulated IEQ relative to vehicle in CF-HBE cells, and this increase was inhibited by CFTR inhibitor-172, then the test agent was considered a CFTR corrector.

TECC24 @ 10 uM over DMSO [1]	Compound	DSLS NBD1/3D Human Stability delta-T (° C.) @ 100 (μM) (NBD1)
–	C[C@@H](c1cccc(CC(=O)O)c1F)c1cnc2n1CCc1ccc(Oc3c(F)cc4[nH]ccc4c3F)cc1-2 (single isomer, unassigned) [Example 1]	A (A: T ≥ 8° C.)
–	C[C@H](c1cccc(CC(=O)O)c1F)c1cnc2n1CCc1ccc(Oc3c(F)cc4[nH]ccc4c3F)cc1-2 (single isomer, unassigned) [Example 2]	A (A: T ≥ 8° C.)
C (“C” refers to AUC @10 uM <= 4)	C[C@@H](c1cccc(CCC(=O)O)c1F)c1cnc2n1CCc1ccc(Oc3c(F)cc4[nH]ccc4c3F)cc1-2 (single isomer, unassigned) [Example 5]	B (B: 4-8° C.)
A (“A” refers to AUC @10 uM >= 12)	C[C@H](c1cccc(CCC(=O)O)c1F)c1cnc2n1CCc1ccc(Oc3c(F)cc4[nH]ccc4c3F)cc1-2 (single isomer, unassigned) [Example 6]	A (A: T ≥ 8° C.)
C (“C” refers to AUC @10 uM <= 4)	CC(c1nc2n(n1)CC(O)COc1ccc(Oc3c(F)cc4[nH]ccc4c3F)cc1-2)c1cccc(CCC(=O)O)c1F (single isomer, unassigned) [Example 13, 3-[3-[1-[14-[(4,6-difluoro-1H-indol-5-yl)oxy]-8-hydroxy-10-oxa-3,5,6-triazatricyclo[9.4.0.02,6]pentadeca-1(15),2,4,11,13-pentaen-4-yl]ethyl]-2-fluoro-phenyl]propanoic acid]	A (A: T ≥ 8° C.)
A (“A” refers to AUC @10 uM >= 12)	CC(c1nc2n(n1)CCOc1ccc(Oc3c(F)cc4[nH]ccc4c3F)cc1-2)c1cccc(CCC(=O)O)c1F (single isomer, unassigned) [Example 15, 3-[3-[1-[10-[(4,6-difluoro-1H-indol-5-yl)oxy]-5,6-dihydro-[1,2,4]triazolo[1,5-d][1,4]benzoxazepin-2-yl]ethyl]-2-fluoro-phenyl]propanoic acid]	A (A: T ≥ 8° C.)
–	CC(c1nc2n(n1)CCOc1ccc(Oc3c(F)cc4[nH]ccc4c3F)cc1-2)c1cccc(CCC(=O)O)c1F (single isomer, unassigned) [Example 16, 3-[3-[1-[10-[(4,6-difluoro-1H-indol-5-yl)oxy]-5,6-dihydro-[1,2,4]triazolo[1,5-d][1,4]benzoxazepin-2-yl]ethyl]-2-fluoro-phenyl]propanoic acid]	C (C: ≤ 4° C.)
A (“A” refers to AUC @10 uM >= 12)	CC(c1cccc(CC(=O)O)c1F)c1cnc2c3cc(Oc4c(F)cc5[nH]ccc5c4F)ccc3ccn12 (stereo not shown) [Example 3, 2-(3-(1-(9-((4,6-difluoro-1H-indol-5-yl)oxy)imidazo[2,1-a]isoquinolin-3-yl)ethyl)-2-fluorophenyl)acetic acid]	A (A: T ≥ 8° C.)
–	CC(c1cccc(CCC(=O)O)c1F)c1cnc2c3cc(Oc4c(F)cc5[nH]ccc5c4F)ccc3ccn12 (stereo not shown) [Example 7, 3-(3-(1-(9-((4,6-difluoro-1H-indol-5-yl)oxy)imidazo[2,1-a]isoquinolin-3-yl)ethyl)-2-fluorophenyl)propanoic acid]	A (A: T ≥ 8° C.)
–	CC(c1cn2c(n1)-c1cc(Oc3c(F)cc4[nH]ccc4c3F)ccc1CCC2)c1cccc(CCC(=O)O)c1F (stereo not shown) [Example 8, 3-(3-(1-(10-((4,6-difluoro-1H-indol-5-yl)oxy)-6,7-dihydro-5H-benzo[c]imidazo[1,2-a]azepin-2-yl)ethyl)-2-fluorophenyl)propanoic acid]	A (A: T ≥ 8° C.)
–	CC(c1nc2n(n1)CCCc1ccc(Oc3c(F)cc4[nH]ccc4c3F)cc1-2)c1cccc(CCC(=O)O)c1F (stereo not shown) [Example 9, 3-(3-(1-(10-((4,6-difluoro-1H-indol-5-yl)oxy)-6,7-dihydro-5H-benzo[c][1,2,4]triazolo[1,5-a]azepin-2-yl)ethyl)-2-fluorophenyl)propanoic acid]	B (B: 4-8° C.)
C (“C” refers to AUC @10 uM <= 4)	COC(=O)CCc1cccc(C(C)c2nc3n(n2)CCCOc2ccc(Oc4c(F)cc5[nH]ccc5c4F)cc2-3)c1F (stereo not shown) [Example 10, methyl 3-(3-(1-(11-((4,6-difluoro-1H-indol-5-yl)oxy)-6,7-dihydro-5H-benzo[b][1,2,4]triazolo[5,1-d][1,5]oxazocin-2-yl)ethyl)-2-fluorophenyl)propanoate]	C (C: ≤ 4° C.)
C (“C” refers to AUC @10 uM <= 4)	CC(c1nc2n(n1)CCCOc1ccc(Oc3c(F)cc4[nH]ccc4c3F)cc1-2)c1cccc(CCC(=O)O)c1F (stereo not shown) [Example 11, 3-[3-[1-[14-[(4,6-difluoro-1H-indol-5-yl)oxy]-10-oxa-3,5,6-triazatricyclo[9.4.0.02,6]pentadeca-1(15),2,4,11,13-pentaen-4-yl]ethyl]-2-fluoro-phenyl]propanoic acid]	A (A: T ≥ 8° C.)
–	CC(c1nc2n(n1)CC(CO)Oc1ccc(Oc3c(F)cc4[nH]ccc4c3F)cc1-2)c1cccc(CCC(=O)O)c1F (stereo not shown) [Example 12, 3-[3-[1-[10-[(4,6-difluoro-1H-indol-5-yl)oxy]-6-(hydroxymethyl)-5,6-dihydro-[1,2,4]triazolo[1,5-d][1,4]benzoxazepin-2-yl]ethyl]-2-fluoro-phenyl]propanoic acid]	A (A: T ≥ 8° C.)

Compound	TECC24 @ 10 uM over DMSO [1]	DSLS NBD1/3D Human Stability delta-T (° C.) @ 100 (μM) (NBD1)
CC(c1nc2n(n1)CC(O)COc1ccc(Oc3c(F)cc4[nH]ccc4c3F)cc1-2)c1cccc(CCC(=O)O)c1F (single isomer, unassigned) [Example 14, 3-[3-[1-[14-[(4,6-difluoro-1H-indol-5-yl)oxy]-8-hydroxy-10-oxa-3,5,6-triazatricyclo[9.4.0.02,6]pentadeca-1(15),2,4,11,13-pentaen-4-yl]ethyl]-2-fluoro-phenyl]propanoic acid]	B (“B” refers to AUC @ 10 uM between 4-12)	A (A: T ≥ 8° C.)
O=C(O)CCc1cccc(Cc2nc3n(n2)Cc2ccc(Oc4c(F)cc5[nH]ccc5c4F)cc2-3)c1F [Example 4, 3-(3-((8-((4,6-difluoro-1H-indol-5-yl)oxy)-5H-triazolo[5,1-a]isoindol-2-yl)methyl)-2-fluorophenyl)propanoic acid]	B (“B” refers to AUC @ 10 uM between 4-12)	B (B: 4-8° C.)
